Results on twelve compounds are retold here after ChEMBL document CHEMBL1130604, “Synthesis and biological activity of novel thiazolidinediones” (1998).

The subject of test [1] is Mus musculus. The test is described as follows: Compound was tested for antidiabetic activity by measuring percentage reduction in plasma glucose at a dose of 30 mg/kg; NE=No effect. The test is classed as functional, organism-based. The arrangement: dose 30 mg/kg.
The test system of test [2] is Rattus norvegicus. Nature of the test: Compound was tested for antiinflammatory activity by measuring percentage reduction in inflammation at a dose of 100 mg/kg in rats. The test is classed as functional.
The test system of test [3] is Mus musculus. Nature of the test: Compound was tested for antidiabetic activity by measuring percentage reduction in triglycerides at a dose of 30 mg/kg; NE=No effect. Also on record: dose 30 mg/kg. The test is classed as functional, organism-based.
The subject of test [4] is Mus musculus. The test is described as follows: Compound was tested for antidiabetic activity by measuring percentage reduction in plasma glucose at a dose of 30 mg/kg. The class given is functional.
For test [5], the system named is Mus musculus. Nature of the test: Compound was tested for antidiabetic activity by measuring percentage reduction in triglycerides at a dose of 30 mg/kg. The test is classed as functional.
Test [6] has as its system Rattus norvegicus. Nature of the test: Compound was tested for antiinflammatory activity by measuring percentage reduction in inflammation at a dose of 100 mg/kg in rats; NE=No effect. The class given is functional, organism-based. Also on record: dose 100 mg/kg.

Activity calls are given as the source filed them. The calls are words filed in the database; no cut-off is given here.

For the compound `C/C(CCc1ccc2cc(OCC3(C)CCc4c(C)c(O)c(C)c(C)c4O3)ccc2c1)=C1/SC(=O)NC1=O` (stereo unspecified), the Reduction entry with Mus musculus [1] and with Mus musculus [3] was “inactive” each time. The Reduction in the test with Rattus norvegicus [2] is given as 12%.
Turning to `C/C(=C1\SC(=O)NC1=O)c1ccco1`, the Reduction in the test with Mus musculus [4] is 16%; in the test with Rattus norvegicus [2] it was 12%. Further, the Reduction result with Mus musculus [3] is “inactive”.
For the compound `COc1ccc2cc(CC/C(C)=C3/SC(=O)NC3=O)ccc2c1`, the figures for the Reduction with Mus musculus [4], in the test with Rattus norvegicus [2] and in the test on Mus musculus [5] were 16%, 10% and 50%, respectively.
The matching figures for `Cc1c(C)c2c(c(C)c1O)CCC(C)(COc1ccc(CC3SC(=O)NC3=O)cc1)O2` (stereo unspecified) [TROGLITAZONE]: 16%, 3% and 50%.
For `COc1ccc2cc(CCC(C)C3SC(=O)NC3=O)ccc2c1` (stereo unspecified), in that order: 8%, 17% and 44%.
For `COc1ccc2cc(/C(C)=C3/SC(=O)NC3=O)ccc2c1`, the Reduction with Mus musculus [4] is 26%; with Rattus norvegicus [2], 7%. For the same compound, the Reduction result in the test on Mus musculus [3] was “inactive”.
For the compound `COc1ccc2cc(CCC(C)=O)ccc2c1` [NABUMETONE], the Reduction entry with Mus musculus [1] and in the test with Mus musculus [3] was “inactive” each time. The same compound showed a Reduction with Rattus norvegicus [2] of 30%.
Regarding `COc1ccc2cc(/C(CC(C)=O)=C3\SC(=O)NC3=O)ccc2c1`, the figures for the Reduction in the test with Mus musculus [4] and in the test on Rattus norvegicus [2] were 16% and 25%, respectively. The Reduction entry in the test on Mus musculus [3] is “inactive”.
For `C/C(=C1/SC(=O)NC1=O)c1cccs1`, the Reduction entry in the test on Rattus norvegicus [6] and in the test on Mus musculus [1] was “inactive” in each case. The compound further registered a Reduction in the test on Mus musculus [5] of 18%.
With `COc1ccc2cc(/C(CC(C)=O)=C3/SC(=O)NC3=O)ccc2c1`, the Reduction entry with Mus musculus [1] and in the test with Mus musculus [3] was “inactive” throughout. In the test with Rattus norvegicus [2], this compound returned a Reduction of 7%.
Regarding `O=C1NC(=O)C(Cc2ccc3cc(OCc4ccccc4F)ccc3c2)S1` (stereo unspecified) [NETOGLITAZONE], the values for the Reduction in the test on Mus musculus [4], in the test with Rattus norvegicus [2] and in the test with Mus musculus [5] were 60%, 18% and 72%, respectively.
Take `C/C(CCc1ccc2cc(O)ccc2c1)=C1\SC(=O)NC1=O`: the Reduction entry with Rattus norvegicus [6] and in the test with Mus musculus [3] was “inactive” throughout. Also, in the test on Mus musculus [4], the Reduction stood at 20%.
